Test results reported in patent US20220151230A1, “SPECIFICALLY SUBSTITUTED 3-(2-HALOGEN-6-ALKYL-4-PROPINYLPHENYL)-3-PYRROLIN-2-ONES AND TO THE USE THEREOF AS HERBICIDES” (Bayer Aktiengesellschaft, priority 2019, published 2022).

Experiments:
ALOMY [1] = assay: Post-emergence herbicidal effect against ALOMY; assay type: in vivo, Alopecurus myosuroides; conditions: one-leaf stage, 80 g/ha, assessed visually after about 3 weeks vs untreated controls, 100% = plants have died
Description: (§1) Seeds of monocotyledonous and dicotyledonous weed and crop plants are laid out in sandy loam soil in wood-fiber pots, covered with soil and cultivated in a greenhouse under good growth conditions. 2 to 3 weeks after sowing, the test plants are treated at the one-leaf stage. The compounds of the invention, formulated in the form of wettable powders (WP) or as emulsion concentrates (EC), are then sprayed onto the green parts of the plants as aqueous suspension or emulsion at a water application rate equating to 600 to 800 l/ha with addition of 0.2% wetting agent. After the test plants have been left to stand in the greenhouse under optimal growth conditions for about 3 weeks, the action of the preparations is assessed visually in comparison to untreated controls (herbicidal action in percent (%): 100% activity=the plants have died, 0% activity=like control plants).

AVEFA [2] = assay: Post-emergence herbicidal effect against AVEFA; assay type: in vivo, Avena fatua; conditions: one-leaf stage, 80 g/ha, assessed visually after about 3 weeks vs untreated controls, 100% = plants have died
Description: as §1

DIGSA [3] = assay: Post-emergence herbicidal effect against DIGSA; assay type: in vivo, Digitaria sanguinalis; conditions: one-leaf stage, 80 g/ha, assessed visually after about 3 weeks vs untreated controls, 100% = plants have died
Description: as §1

ECHCG [4] = assay: Post-emergence herbicidal effect against ECHCG; assay type: in vivo, Echinochloa crus-galli; conditions: one-leaf stage, 80 g/ha, assessed visually after about 3 weeks vs untreated controls, 100% = plants have died
Description: as §1

LOLRI [5] = assay: Post-emergence herbicidal effect against LOLRI; assay type: in vivo, Lolium rigidum; conditions: one-leaf stage, 80 g/ha, assessed visually after about 3 weeks vs untreated controls, 100% = plants have died
Description: as §1

SETVI [6] = assay: Post-emergence herbicidal effect against SETVI; assay type: in vivo, Setaria viridis; conditions: one-leaf stage, 80 g/ha, assessed visually after about 3 weeks vs untreated controls, 100% = plants have died
Description: as §1

HORMU = assay: Post-emergence herbicidal effect against HORMU; assay type: in vivo, Hordeum murinum; conditions: one-leaf stage, 80 g/ha, assessed visually after about 3 weeks vs untreated controls, 100% = plants have died
Description: as §1

ALOMY [7] = assay: Pre-emergence herbicidal effect against ALOMY; assay type: in vivo, Alopecurus myosuroides; conditions: 320 g/ha, scored visually after 3 weeks vs untreated controls, 100% = plants have died
Description: (§2) Seeds of monocotyledonous and dicotyledonous weed plants and crop plants are laid out in sandy loam soil in wood-fiber pots and covered with soil. The compounds of the invention, formulated in the form of wettable powders (WP) or as emulsion concentrates (EC), are then applied to the surface of the covering soil as aqueous suspension or emulsion at a water application rate equating to 600 to 800 L/ha with addition of 0.2% wetting agent.
(§3) After the treatment, the pots are placed in a greenhouse and kept under good growth conditions for the trial plants. The damage to the test plants is scored visually after a test period of 3 weeks by comparison with untreated controls (herbicidal activity in percent (%): 100% activity=the plants have died, 0% activity=like control plants).

AVEFA [8] = assay: Pre-emergence herbicidal effect against AVEFA; assay type: in vivo, Avena fatua; conditions: 320 g/ha, scored visually after 3 weeks vs untreated controls, 100% = plants have died
Description: as §2, §3

DIGSA [9] = assay: Pre-emergence herbicidal effect against DIGSA; assay type: in vivo, Digitaria sanguinalis; conditions: 320 g/ha, scored visually after 3 weeks vs untreated controls, 100% = plants have died
Description: as §2, §3

LOLRI [10] = assay: Pre-emergence herbicidal effect against LOLRI; assay type: in vivo, Lolium rigidum; conditions: 320 g/ha, scored visually after 3 weeks vs untreated controls, 100% = plants have died
Description: as §2, §3

SETVI [11] = assay: Pre-emergence herbicidal effect against SETVI; assay type: in vivo, Setaria viridis; conditions: 320 g/ha, scored visually after 3 weeks vs untreated controls, 100% = plants have died
Description: as §2, §3

VIOTR = assay: Pre-emergence herbicidal effect against VIOTR; assay type: in vivo, Viola tricolor; conditions: 320 g/ha, scored visually after 3 weeks vs untreated controls, 100% = plants have died
Description: as §2, §3

ECHCG [12] = assay: Pre-emergence herbicidal effect against ECHCG; assay type: in vivo, Echinochloa crus-galli; conditions: 320 g/ha, scored visually after 3 weeks vs untreated controls, 100% = plants have died
Description: as §2, §3

| Compound | Post-emergence action [%] against ALOMY (ALOMY [1]) | Post-emergence action [%] against AVEFA (AVEFA [2]) | Post-emergence action [%] against DIGSA (DIGSA [3]) | Post-emergence action [%] against ECHCG (ECHCG [4]) | Post-emergence action [%] against LOLRI (LOLRI [5]) | Post-emergence action [%] against SETVI (SETVI [6]) | Post-emergence action [%] against HORMU (HORMU) | Pre-emergence action [%] against ALOMY (ALOMY [7]) | Pre-emergence action [%] against AVEFA (AVEFA [8]) | Pre-emergence action [%] against DIGSA (DIGSA [9]) | Pre-emergence action [%] against LOLRI (LOLRI [10]) | Pre-emergence action [%] against SETVI (SETVI [11]) | Pre-emergence action [%] against VIOTR (VIOTR) | Pre-emergence action [%] against ECHCG (ECHCG [12]) |
| --- | --- | --- | --- | --- | --- | --- | --- | --- | --- | --- | --- | --- | --- | --- |
| CC#Cc1cc(C)c(C2=C(O)C3(CCCC(OCCC)C3)NC2=O)c(Cl)c1 (stereo not drawn) [Example D1, 3-[2-Chloro-6-methyl-4-(prop-1-yn-1-yl)phenyl]-4-hydroxy-7-propoxy-1-azaspiro[4.5]dec-3-en-2-one] | 100% | 100% | 100% | 100% | 100% | 100% | 100% |  |  |  |  |  |  |  |
| CC#Cc1cc(C)c(C2=C(O)C3(CCC(CC)CC3)NC2=O)c(Cl)c1 (stereo not drawn) [Example E1] | 100% | 100% | 100% | 100% | 100% | 100% | 100% |  |  |  |  |  |  |  |
| CC#Cc1cc(C)c(C2=C(O)C3(CCC(OC)CC3)NC2=O)c(Br)c1 (stereo not drawn) [Example E21] | 100% | 90% | 100% | 100% | 100% | 100% |  | 100% | 100% | 100% | 100% | 100% | 100% | 100% |
| CC#Cc1cc(C)c(C2=C(OC(=O)OCC)C3(CCC(CC)CC3)NC2=O)c(Cl)c1 (stereo not drawn) [Example P3] | 100% |  | 100% | 100% | 100% | 100% | 100% |  |  |  |  |  |  |  |
| CC#Cc1cc(C)c(C2=C(OC(=O)OCC)C3(CCC(OC)CC3)NC2=O)c(Br)c1 (stereo not drawn) [Example P13] | 100% | 100% | 100% | 100% | 100% | 100% |  | 100% | 100% | 100% | 100% | 100% | 100% | 100% |
| CC#Cc1cc(C)c(C2=C(OC(=O)OCC)C3(CCC(OCCOC)CC3)NC2=O)c(Cl)c1 (stereo not drawn) [Example P17] | 100% | 100% | 100% | 100% | 100% | 100% |  | 100% | 100% | 100% | 100% | 100% | 100% | 100% |
| CC#Cc1cc(Cl)c(C2=C(OC(=O)OCC)C3(CCC(OC)CC3)NC2=O)c(CC)c1 (stereo not drawn) [Example P21] | 90% | 80% | 100% | 100% | 80% | 100% |  | 100% | 100% | 100% | 100% | 100% | 90% | 100% |
